Assay results from publication PMC6404347, “CHCHD4 confers metabolic vulnerabilities to tumour cells through its control of the mitochondrial respiratory chain” (Cancer & Metabolism, 2019).

Biological target: T1, mitochondrial respiratory chain complex I (CI) (Bos taurus, UniProt P03887+P17694+P42026)
T1 construct: gene NDUFS2; whole CI enzyme immunocaptured from purified bovine heart mitochondria
Assay: MitoTox Complex I OXPHOS Activity Microplate Assay (immunocaptured enzyme), dose-response
Format: biochemical

T1 sequence (P17694 34-463): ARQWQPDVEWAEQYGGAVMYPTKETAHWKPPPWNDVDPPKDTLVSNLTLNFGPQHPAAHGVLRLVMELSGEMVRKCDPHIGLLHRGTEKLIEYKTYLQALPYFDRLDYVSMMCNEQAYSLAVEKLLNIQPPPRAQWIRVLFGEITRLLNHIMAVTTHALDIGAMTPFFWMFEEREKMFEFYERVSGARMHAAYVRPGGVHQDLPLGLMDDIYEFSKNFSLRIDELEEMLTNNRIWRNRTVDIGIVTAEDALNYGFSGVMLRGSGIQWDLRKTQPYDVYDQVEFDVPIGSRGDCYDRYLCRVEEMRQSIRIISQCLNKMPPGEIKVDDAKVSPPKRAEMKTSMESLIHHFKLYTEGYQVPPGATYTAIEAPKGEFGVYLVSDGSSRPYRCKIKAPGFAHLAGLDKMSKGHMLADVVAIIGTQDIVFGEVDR
T1 sequence (P42026 38-216): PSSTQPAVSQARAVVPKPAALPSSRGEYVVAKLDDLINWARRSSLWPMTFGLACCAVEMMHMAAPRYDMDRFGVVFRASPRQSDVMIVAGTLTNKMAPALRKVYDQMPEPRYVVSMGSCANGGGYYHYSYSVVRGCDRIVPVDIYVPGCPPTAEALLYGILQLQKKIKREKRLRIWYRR
T1 sequence (P03887 whole entry): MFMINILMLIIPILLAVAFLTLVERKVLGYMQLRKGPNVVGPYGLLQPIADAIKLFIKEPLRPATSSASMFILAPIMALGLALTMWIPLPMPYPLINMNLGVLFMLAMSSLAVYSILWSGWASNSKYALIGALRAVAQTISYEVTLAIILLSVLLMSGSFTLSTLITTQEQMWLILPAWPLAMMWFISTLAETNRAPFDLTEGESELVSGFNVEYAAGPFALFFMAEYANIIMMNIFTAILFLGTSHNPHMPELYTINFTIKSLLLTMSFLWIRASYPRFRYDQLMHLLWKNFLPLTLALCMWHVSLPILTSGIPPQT

Compound: Cc1cc(-c2nc(-c3ccc(OC(F)(F)F)cc3)no2)nn1Cc1ccnc(N2CCN(C3CC3)CC2)c1 [BAY 87-2243]
- IC50: ~500 nM
